The test system of the series is CCRIS mutagenicity, Ames/micronucleus/aberration tests. Put plainly: CCRIS mutagenicity studies.
[1] abbreviates: Test System: AMES SALMONELLA TYPHIMURIUM, Strain/Indicator: TA100, Metabolic Activation: NONE, Method: PREINCUBATION
The mark [2] stands for this setting: Test System: AMES SALMONELLA TYPHIMURIUM, Strain/Indicator: TA100, Metabolic Activation: RAT, LIVER, S-9, AROCLOR 1254, Method: PREINCUBATION
Setting [3] is: Test System: AMES SALMONELLA TYPHIMURIUM, Strain/Indicator: TA98, Metabolic Activation: NONE, Method: PREINCUBATION
[4] abbreviates: Test System: AMES SALMONELLA TYPHIMURIUM, Strain/Indicator: TA98, Metabolic Activation: NONE, Method: STANDARD PLATE.
The mark [5] stands for this setting: Test System: AMES SALMONELLA TYPHIMURIUM, Strain/Indicator: TA100, Metabolic Activation: NONE, Method: STANDARD PLATE.

Molecules are shown by their SMILES. The source made the active and inactive calls. The rule behind the calls is not given here.

Turning to `CCOCCl`, the mutagenic call reads like this: (Test System: E. COLI, Strain/Indicator: H/R30R, Metabolic Activation: NONE, Method: PREINCUBATION) “active; positive”; (Test System: E. COLI, Strain/Indicator: HS30R UVRA, Metabolic Activation: NONE, Method: PREINCUBATION) “active; positive”.

`Cl/C=C(\Cl)SCc1ccccc1`: the mutagenic call was “inactive; negative” under setting [1] and “active; positive” under setting [2].

As to `[Cl][Hg].[Cl][Hg]`, for the setting “End Point: IN VIVO MICRONUCLEUS, Test System: BONE MARROW, Species: HAMSTER, Strain/Sex: SYRIAN/MALE, Route: INTRAPERITONEAL”, the mutagenic call is “inactive; negative”.

For the molecule `C=CCNC1=C2C[C@@H](C)C[C@H](OC)[C@H](O)[C@@H](C)/C=C(\C)[C@H](OC(N)=O)[C@@H](OC)/C=C\C=C(/C)C(=O)NC(=CC1=O)C2=O`, the mutagenic call (Test System: Mouse lymphoma, Strain/Indicator: L5178Y (tk+/tk-), Metabolic Activation: None, Method: Suspension/plate) is “active; positive” and the mutagenic call (Test System: Mouse lymphoma, Strain/Indicator: L5178Y (tk+/tk-), Metabolic Activation: Rat, Liver, S-9, Aroclor 1254, Method: Suspension/plate) was “inactive; negative”.

For `C1CS1`, the mutagenic call is “inactive; negative” (Test System: AMES SALMONELLA TYPHIMURIUM, Strain/Indicator: TA98, Metabolic Activation: HAMSTER, LIVER, S-9, AROCLOR 1254, Method: PREINCUBATION); “inactive; negative” under setting [3]; “inactive; negative” (Test System: AMES SALMONELLA TYPHIMURIUM, Strain/Indicator: TA98, Metabolic Activation: RAT, LIVER, S-9, AROCLOR 1254, Method: PREINCUBATION); “active; positive” (Test System: AMES SALMONELLA TYPHIMURIUM, Strain/Indicator: TA100, Metabolic Activation: HAMSTER, LIVER, S-9, AROCLOR 1254, Method: PREINCUBATION); “active; positive” under setting [1]; “active; positive” under setting [2]. Further, the mutagenic call (Test System: MOUSE LYMPHOMA, Strain/Indicator: L5178Y (TK+/TK-), Metabolic Activation: NONE, Method: SUSPENSION/PLATE) is “active; positive. reevaluation of results: positive” and the mutagenic call (Test System: MOUSE LYMPHOMA, Strain/Indicator: L5178Y (TK+/TK-), Metabolic Activation: RAT, LIVER, S-9, AROCLOR 1254, Method: SUSPENSION/PLATE) is “active; positive. reevaluation of results: positive”.

Consider `CC(CCN(C)C)N(C)C` (centres undefined), for which the mutagenic call was “inactive; negative” (Test System: AMES SALMONELLA TYPHIMURIUM, Strain/Indicator: TA98, Metabolic Activation: HAMSTER, LIVER, S-9, AROCLOR 1254 (10%), Method: PREINCUBATION); “inactive; negative” under setting [3]; “inactive; negative” (Test System: AMES SALMONELLA TYPHIMURIUM, Strain/Indicator: TA98, Metabolic Activation: RAT, LIVER, S-9, AROCLOR 1254 (10%), Method: PREINCUBATION); “inactive; negative” (Test System: AMES SALMONELLA TYPHIMURIUM, Strain/Indicator: TA98, Metabolic Activation: RAT, LIVER, S-9, PCB, Method: PREINCUBATION); “inactive; negative” (Test System: AMES SALMONELLA TYPHIMURIUM, Strain/Indicator: TA100, Metabolic Activation: HAMSTER, LIVER, S-9, AROCLOR 1254 (10%), Method: PREINCUBATION); “inactive; negative” under setting [1]. In addition, the mutagenic call reads like this: (Test System: AMES SALMONELLA TYPHIMURIUM, Strain/Indicator: TA100, Metabolic Activation: RAT, LIVER, S-9, AROCLOR 1254 (10%), Method: PREINCUBATION) “inactive; negative”; (Test System: AMES SALMONELLA TYPHIMURIUM, Strain/Indicator: TA100, Metabolic Activation: RAT, LIVER, S-9, PCB, Method: PREINCUBATION) “inactive; negative”; (Test System: AMES SALMONELLA TYPHIMURIUM, Strain/Indicator: TA1535, Metabolic Activation: HAMSTER, LIVER, S-9, AROCLOR 1254 (10%), Method: PREINCUBATION) “inactive; negative”; (Test System: AMES SALMONELLA TYPHIMURIUM, Strain/Indicator: TA1535, Metabolic Activation: NONE, Method: PREINCUBATION) “inactive; negative”; (Test System: AMES SALMONELLA TYPHIMURIUM, Strain/Indicator: TA1535, Metabolic Activation: RAT, LIVER, S-9, AROCLOR 1254 (10%), Method: PREINCUBATION) “inactive; negative”; (Test System: AMES SALMONELLA TYPHIMURIUM, Strain/Indicator: TA1537, Metabolic Activation: HAMSTER, LIVER, S-9, AROCLOR 1254 (10%), Method: PREINCUBATION) “inactive; negative”. Further, the mutagenic call is, setting by setting: (Test System: AMES SALMONELLA TYPHIMURIUM, Strain/Indicator: TA1537, Metabolic Activation: NONE, Method: PREINCUBATION) “inactive; negative”; (Test System: AMES SALMONELLA TYPHIMURIUM, Strain/Indicator: TA1537, Metabolic Activation: RAT, LIVER, S-9, AROCLOR 1254 (10%), Method: PREINCUBATION) “inactive; negative”.

For the molecule `Cc1cc(C)cc(OC(=O)N(C)N=O)c1`, the mutagenic call (Test System: E. COLI WP2, Strain/Indicator: WP2, Metabolic Activation: NONE, Method: STANDARD PLATE) is “active; positive”.

Consider `NC(=O)c1csc([N+](=O)[O-])c1`, for which the mutagenic call under setting [4] is “active; positive” and the mutagenic call under setting [5] was “active; positive”.

On to `O=C(CCl)CCl`, for which the mutagenic call is, setting by setting: under setting [4], “inactive; negative”; (Test System: AMES SALMONELLA TYPHIMURIUM, Strain/Indicator: TA100, Metabolic Activation: NONE, Method: FLUCTUATION TEST) “active; positive”; under setting [5], “active; positive”; (Test System: AMES SALMONELLA TYPHIMURIUM, Strain/Indicator: TA100, Metabolic Activation: RAT, LIVER, S-9, AROCLOR 1254, Method: FLUCTUATION TEST) “inactive; negative”; (Test System: AMES SALMONELLA TYPHIMURIUM, Strain/Indicator: TA100, Metabolic Activation: RAT, LIVER, S-9, AROCLOR 1254, Method: STANDARD PLATE) “active; positive”; (Test System: AMES SALMONELLA TYPHIMURIUM, Strain/Indicator: TA1535, Metabolic Activation: NONE, Method: STANDARD PLATE) “active; positive”. Moreover, the mutagenic call (Test System: AMES SALMONELLA TYPHIMURIUM, Strain/Indicator: TA1535, Metabolic Activation: RAT, LIVER, S-9, AROCLOR 1254, Method: STANDARD PLATE) was “active; positive”.

These data come from PubChem BioAssay AID1259407 (Chemical Carcinogenesis Research Information System (CCRIS), 2018).
